Assay results published in patent US11285156B2, “Substituted piperazines as KRAS G12C inhibitors” (Amgen Inc., priority 2018, dated 2022).

Target: GDP-bound KRAS protein (aa 1-169), containing both G12C and C118A amino acid substitutions (Homo sapiens (Human), UniProt P01116, C118A/G12C)
Assay: Coupled nucleotide exchange assay (SOS-mediated nucleotide exchange, AlphaScreen)
Assay type: biochemical
Details: 5 min compound pre-incubation; for IC50: read-out: Coupled exchange IC50 (5 min; μM)

GDP-bound KRAS protein (aa 1-169), containing both G12C and C118A amino acid substitutions, sequence (P01116 other isoform, or with tags, fused parts or gaps G12C/C118A): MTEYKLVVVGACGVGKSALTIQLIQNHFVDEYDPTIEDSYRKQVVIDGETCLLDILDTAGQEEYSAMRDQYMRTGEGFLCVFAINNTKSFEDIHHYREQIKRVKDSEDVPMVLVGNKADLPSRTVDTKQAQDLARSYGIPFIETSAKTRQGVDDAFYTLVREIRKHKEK

SMILES | IC50 | Coupled exchange IC50 (5 min; μM)
CC#CC(=O)N1C[C@H](C)N(c2nc(=O)n(-c3c(C)ccnc3C(C)C)c3nc(-c4ccccc4F)c(F)cc23)C[C@H]1C [Example 119-1, 4-((2S,5R)-4(But-2-ynoyl)-2,5-dimethylpiperazin-1-yl)-6-fluoro-7-(2-fluorophenyl)-1-(2-isopropyl-4-methylpyridin-3-yl)pyrido[2,3-d]pyrimidin-2(1H)-one] | 24 µM | –
Cc1ccnc(C(C)C)c1-n1c(=O)nc(N2C[C@@H](C)N(C(=O)C#CCN(C)C)C[C@@H]2C)c2cc(F)c(-c3ccccc3F)nc21 [Example 119-2, 4-((2S,5R)-4-(4-(Dimethylamino)but-2-ynoyl)-2,5-dimethylpiperazin-1-yl)-6-fluoro-7-(2-fluorophenyl)-1-(2-isopropyl-4-methylpyridin-3-yl)pyrido[2,3-d]pyrimidin-2(1H)-one] | 0.33 µM | –
C=CC(=O)N1C[C@H](C)N(c2nc(=O)n(-c3c(N(C)C)ccnc3C(C)C)c3nc(-c4c(F)cccc4NC(=O)C4CC4)c(Cl)cc23)C[C@H]1C [Example 122-3, N-[2-[6-Chloro-1-[4-(dimethylamino)-2-isopropyl-3-pyridyl]-4-[(2S,5R)-2,5-dimethyl-4-prop-2-enoyl-piperazin-1-yl]-2-oxo-pyrido[2,3-d]pyrimidin-7-yl]-3-fluoro-phenyl]cyclopropanecarboxamide] | 0.503 µM | –
C=CC(=O)N1C[C@H](C)N(c2nc(=O)n(-c3c(C(C)C)ccnc3C(C)C)c3nc(-c4ccccc4C)c(F)cc23)C[C@H]1C [Example 124-5, 1-(2,4-Diisopropyl-3-pyridyl)-4-[(2S,5R)-2,5-dimethyl-4-prop-2-enoyl-piperazin-1-yl]-6-fluoro-7-(o-tolyl)pyrido[2,3-d]pyrimidin-2-one] | 0.439 µM | –
C=CC(=O)N1C[C@H](C)N(c2nc(=O)n(-c3c(CN(CC)C(C)C)ccnc3C(C)C)c3nc(-c4ccccc4C(C)C)c(Cl)cc23)C[C@H]1C [Example 141-2, 6-Chloro-4-[(2S,5R)-2,5-dimethyl-4-prop-2-enoyl-piperazin-1-yl]-1-[4-[[ethyl(isopropyl)amino]methyl]-2-isopropyl-3-pyridyl]-7-(2-isopropylphenyl)pyrido[2,3-d]pyrimidin-2-one] | 0.279 µM | –
C=CC(=O)N1C[C@H](C)N(c2nc(=O)n3c4nc(c(Cl)cc24)-c2ccccc2C/C=C\Cc2cccc(C(C)C)c2-3)C[C@H]1C [Example 146-1, (F)-(9Z)-19-Chloro-22-((2S,5R)-2,5-dimethyl-4-(2-propenoyl)-1-piperazinyl)-3-(2-propanyl)-1,23,26-triazapentacyclo[16.6.2.0˜2,7˜.0˜12,17˜0˜21,25-]hexacosa-2,4,6,9,12,14,16,18,20,22,25-undecaen-24-one and (F)-19-chloro-22-((2S,5R)-2,5-dimethyl-4-(2-propenoyl)-1-piperazinyl)-3-(2-propanyl)-1,23,26-triazapentacyclo[6.6.2.0˜2,7˜.0˜12,17˜.0˜21,25˜]hexacosa-2,4,6,9,12,14,16,18,20,22,25-undecaen-24-one] | 12.8 µM | –
C=CC(=O)N1C[C@H](C)N(c2nc(=N)n(CC(C)(C)C)c3nc(-c4ccccc4F)c(Cl)cc23)C[C@H]1C [Example 150, 1-((2R,5S)-4-(6-Chloro-7-(2-fluorophenyl)-2-imino-1-neopentyl-1,2-dihydropyrido[2,3-d]pyrimidin-4-yl)-2,5-dimethylpiperazin-1-yl)prop-2-en-1-one] | 0.313 µM | –
C=CC(=O)N1C[C@H](C)N(c2n/c(=N\C)n(CC(C)(C)C)c3nc(-c4ccccc4F)c(Cl)cc23)C[C@H]1C [Example 151, 1-((2R,5S)-4-((Z)-6-Chloro-7-(2-fluorophenyl)-2-(methylimino)-1-neopentyl-1,2-dihydropyrido[2,3-d]pyrimidin-4-yl)-2,5-dimethylpiperazin-1-yl)prop-2-en-1-one 2,2,2-trifluoroacetate] | 0.348 µM | –
C=CC(=O)N1C[C@H](C)N(c2nc(=O)n(-c3ccccc3C(C)C)c3c2CCN(c2ccccc2)C3)C[C@H]1C [Example 152, 4-((2S,5R)-4-Acryloyl-2,5-dimethylpiperazin-1-yl)-1-(2-isopropylphenyl)-7-phenyl-5,6,7,8-tetrahydropyrido[3,4-d]pyrimidin-2(1H)-one] | 132 µM | –
C=CC(=O)N1C[C@H](C)N(c2nc(=O)n(-c3c(C(C)C)nc(CC)nc3C(C)C)c3nc(-c4ccccc4F)c(Cl)cc23)C[C@H]1C [Example 169, 6-Chloro-4-[(2S,5R)-2,5-dimethyl-4-prop-2-enoyl-piperazin-1-yl]-1-(2-ethyl-4,6-diisopropyl-pyrimidin-5-yl)-7-(2-fluorophenyl)pyrido[2,3-d]pyrimidin-2-one] | 0.55 µM | –
C=CC(=O)N1C[C@H](C)N(c2nc(=O)n(-c3c(C(C)C)nc(-c4ccoc4)nc3C(C)C)c3nc(-c4ccccc4F)c(Cl)cc23)C[C@H]1C [Example 171, 6-Chloro-4-[(2S,5R)-2,5-dimethyl-4-prop-2-enoyl-piperazin-1-yl]-7-(2-fluorophenyl)-1-[2-(3-furyl)-4,6-diisopropyl-pyrimidin-5-yl]pyrido[2,3-d]pyrimidin-2-one] | 0.206 µM | –
C=CC(=O)N1C[C@H](C)N(c2nc(=O)n(-c3c(C(C)C)cc(N4CCC4)nc3C(C)C)c3nc(-c4ccccc4F)c(Cl)cc23)C[C@H]1C [Example 182, 4-((2S,5R)-4-Acryloyl-2,5-dimethylpiperazin-1-yl)-1-(6-(azetidin-1-yl)-2,4-diisopropylpyridin-3-yl)-6-chloro-7-(2-fluorophenyl)pyrido[2,3-d]pyrimidin-2(1H)-one] | – | 8.794 µM
C=CC(=O)N1C[C@H](C)N(c2nc(=O)n(-c3c(C)cc(CN(C)C)cc3C(C)C)c3nc(-c4c(N)cccc4F)c(F)cc23)C[C@H]1C [Example 184, 4-((2S,5R)-4-Acryloyl-2,5-dimethylpiperazin-1-yl)-7-(2-amino-6-fluorophenyl)-1-(4-((dimethylamino)methyl)-2-isopropyl-6-methylphenyl)-6-fluoropyrido[2,3-d]pyrimidin-2(1H)-one] | 2.81 µM | –
C=CC(=O)N1C[C@H](C)N(c2nc(=O)n(-c3c(C)nc(C)nc3C(C)C)c3nc(-c4ccccc4F)c(C)cc23)C[C@H]1C [Example 195, 4-((2S,5R)-4-Acryloyl-2,5-dimethylpiperazin-1-yl)-7-(2-fluorophenyl)-1-(4-isopropyl-2,6-dimethylpyrimidin-5-yl)-6-methylpyrido[2,3-d]pyrimidin-2(1H)-one] | 0.488 µM | –
C=CC(=O)N1[C@H](C)CN(c2nc(=O)n(-c3c(C(C)C)cnnc3C(C)C)c3nc(-c4ccccc4F)c(Cl)cc23)C[C@@H]1C [Example 206-1, 4-(cis-4-Acryloyl-3,5-dimethylpiperazin-1-yl)-6-chloro-1-(3,5-diisopropylpyridazin-4-yl)-7-(2-fluorophenyl)pyrido[2,3-d]pyrimidin-2(1H)-one] | – | 0.143 µM
C=CC(=O)N1C[C@H](C)N(C2=NCC(=O)N(c3c(C)ccnc3C(C)C)c3nc(-c4ccccc4F)c(Cl)cc32)C[C@H]1C [Example 219, 5-((2S,5R)-4-Acryloyl-2,5-dimethylpiperazin-1-yl)-7-chloro-8-(2-fluorophenyl)-1-(2-isopropyl-4-methylpyridin-3-yl)-1,3-dihydro-2H-pyrido[2,3-e][1,4]diazepin-2-one] | 250 µM | –
